According to US20260042755A1, “GPR6 INVERSE AGONISTS” (MapLight Therapeutics, Inc., priority 2022, published 2026):

Columns and labels:
[1] = target: T1, GPR6 (Homo sapiens, UniProt P46095); experiment: GPR6 antagonist functional cAMP assay (LANCE Ultra cAMP TR-FRET, CHO cells stably expressing GPR6); format: cell-based
T1 construct: expressed in transfected cells; host or cells: CHO cells
Summary of the method: (§1)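 10,000 cells/well; KRB buffer + 0.1% BSA + 150 μM Ro 20-1724; cpd 45 min, 37 °C, 0.1% DMSO; TR-FRET cAMP, 665 nm; 4-PL fit, normalized to DMSO (0.1%) and reference (100%) → IC50.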

[2] = target: T2, GPR3 (Homo sapiens, UniProt P46089); experiment: GPR3 antagonist functional cAMP assay (LANCE Ultra cAMP TR-FRET, CHO cells stably expressing GPR3); format: cell-based
T2 construct: expressed in transfected cells; host or cells: CHO cells
Summary of the method: as §1

[3] = CHO cells stably expressing GPR6, cAMP assay
[4] = CHO cells stably expressing GPR3, cAMP assay
[5] = CHO cells stably expressing GPR6, cAMP assay (Example 24)
[6] = CHO cells stably expressing GPR3, cAMP assay (Example 24)

T2 sequence (P46089 whole entry, species assumed): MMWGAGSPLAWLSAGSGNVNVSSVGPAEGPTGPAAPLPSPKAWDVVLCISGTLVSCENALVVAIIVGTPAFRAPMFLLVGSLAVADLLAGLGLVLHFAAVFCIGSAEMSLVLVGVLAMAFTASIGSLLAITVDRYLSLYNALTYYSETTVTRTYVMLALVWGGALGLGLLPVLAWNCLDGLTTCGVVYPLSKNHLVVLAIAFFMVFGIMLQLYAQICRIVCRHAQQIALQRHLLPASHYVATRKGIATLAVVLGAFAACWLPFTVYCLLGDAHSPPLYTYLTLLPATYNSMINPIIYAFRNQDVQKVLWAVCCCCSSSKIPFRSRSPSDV
T1 sequence (P46095 whole entry): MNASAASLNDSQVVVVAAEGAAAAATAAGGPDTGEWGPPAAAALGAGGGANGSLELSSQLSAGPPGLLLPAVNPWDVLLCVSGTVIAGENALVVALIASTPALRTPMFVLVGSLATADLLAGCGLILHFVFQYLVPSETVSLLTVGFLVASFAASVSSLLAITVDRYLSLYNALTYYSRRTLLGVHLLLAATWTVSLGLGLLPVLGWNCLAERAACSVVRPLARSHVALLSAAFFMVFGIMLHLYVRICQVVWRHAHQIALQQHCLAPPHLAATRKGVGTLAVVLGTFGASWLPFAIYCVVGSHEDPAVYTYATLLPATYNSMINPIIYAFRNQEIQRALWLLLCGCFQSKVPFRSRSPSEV

Row | Compound | IC50 ([1]; procedure of Example 24) | IC50 ([2]; procedure of Example 24) | IC50 [1, 5] | IC50 [2, 6] | further results
1 | CC(=O)N1CCc2nc(N3CCN(Cc4ccn[nH]4)CC3)c(-c3cnn(C)c3)nc2C1 [Compound 524, 1-[3-(1-methyl-4-pyrazolyl)-2-{4-[(5-pyrazolyl)methyl]-1-piperazinyl}-5,6,7,8-tetrahydro-1,4,6-triaza-6-naphthyl]-1-ethanone] | – | – | – | – | IC50 [1, 3]: ≥ 30000 nM; IC50 [2, 4]: ≥ 30000 nM
2 | Fc1ccc(F)c(CN2CCN(c3nc4cnc(-c5cnn(C(F)F)c5)cc4nc3-c3cnn(C(F)F)c3)CC2)c1 [Compound 774, 2,7-bis [1-(difluoromethyl)-4-pyrazolyl]-3-{4-[(2,5-difluorophenyl)methyl]-1-piperazinyl}-1,4,6-triazanaphthalene] | 1000 to 30000 nM | 1000 to 30000 nM | – | – | –
3 | COc1ccc(CN2CCN(c3nc4c(nc3-c3cnn(C)c3)CN(C(C)=O)CC4)CC2)cc1 [Compound 317, 1-(2-{4-[(4-methoxyphenyl)methyl]piperazin-1-yl}-3-(1-methyl-1H-pyrazol-4-yl)-5H,6H,7H,8H-pyrido[3,4-b]pyrazin-6-yl)ethan-1-one] | 1000 to 30000 nM | 1000 to 30000 nM | – | – | –
4 | CN1CC(c2cc3nc(N4CCC(Oc5ccc(F)cc5F)CC4)c(-c4cnn(C)c4)nc3cn2)OC1=O (stereo not drawn) [Compound 482, 5-(2-(4-(2,4-difluorophenoxy)piperidin-1-yl)-3-(1-methyl-1H-pyrazol-4-yl)pyrido[3,4-b]pyrazin-7-yl)-3-methyloxazolidin-2-one] | – | – | 100 to 1000 nM | 1000 to 30000 nM | –
5 | COCCn1cc(-c2nc3c(nc2N2CCC(Oc4ccc(F)cc4F)CC2)CCN(C(C)=O)C3)cn1 [Compound 74, 1-{2-[4-(2,4-difluorophenoxy)piperidin-1-yl]-3-[1-(2-methoxyethyl)-1H-pyrazol-4-yl]-5H,6H,7H,8H-pyrido[3,4-b]pyrazin-6-yl}ethan-1-one] | – | – | 100 to 1000 nM | 1000 to 30000 nM | –
6 | CC(C)(O)C(O)c1cc2nc(N3CCC(Oc4ccc(F)cc4F)CC3)c(-c3cnn(C4CC4)c3)nc2cn1 (stereo not drawn) [Compound 469, 1-[3-(1-cyclopropyl-1H-pyrazol-4-yl)-2-[4-(2,4-difluorophenoxy)piperidin-1-yl]pyrido[3,4-b]pyrazin-7-yl]-2-methylpropane-1,2-diol] | – | – | 100 to 1000 nM | 1000 to 30000 nM | –
7 | CC(=O)N1CCc2nc(N3CCN(Cc4cscn4)CC3)c(-c3cnn(C)c3)nc2C1 [Compound 516, 1-[3-(1-methyl-4-pyrazolyl)-2-{4-[(1,3-thiazol-4-yl)methyl]-1-piperazinyl}-5,6,7,8-tetrahydro-1,4,6-triaza-6-naphthyl]-1-ethanone] | – | – | – | – | IC50 [1, 3]: 1000 to 30000 nM; IC50 [2, 4]: ≥ 30000 nM
8 | CCc1cncc(-c2nc3c(nc2N2CCC(Oc4ccc(F)cc4F)CC2)CCN(C(C)=O)C3)n1 [Compound 493, 1-{2-[4-(2,4-difluorophenoxy)piperidin-1-yl]-3-(6-ethylpyrazin-2-yl)-5H,6H,7H,8H-pyrido[3,4-b]pyrazin-6-yl}ethan-1-one] | – | – | – | – | IC50 [1, 3]: 1000 to 30000 nM; IC50 [2, 4]: 1000 to 30000 nM
9 | O=c1cc2nc(-c3cnn(CF)c3)c(N3CCN(Cc4ccc(F)cc4F)CC3)nc2c[nH]1 [Compound 796, 3-{4-[(2,4-difluorophenyl)methyl]-1-piperazinyl}-2-[1-(fluoromethyl)-4-pyrazolyl]-1,4,6-triaza-7(6H)-naphthalenone] | 100 to 1000 nM | 1000 to 30000 nM | – | – | –
10 | CN(C)C(=O)N1CCc2nc(N3CCC(Oc4ccc(F)cc4F)CC3)c(-c3cnn(C4CCCCO4)c3)nc2C1 (stereo not drawn) [Compound 182, 2-[4-(2,4-difluorophenoxy)piperidin-1-yl]-N,N-dimethyl-3-[1-(oxan-2-yl)-1H-pyrazol-4-yl]-5H,6H,7H,8H-pyrido[3,4-b]pyrazine-6-carboxamide] | – | – | 100 to 1000 nM | 1000 to 30000 nM | –
11 | CCn1cc(-c2nc3cnc(C(C)(O)C(C)(C)O)cc3nc2N2CCN(Cc3ccc(F)cc3F)CC2)cn1 (stereo not drawn) [Compound 654, 2-(2-{4-[(2,4-difluorophenyl)methyl]-1-piperazinyl}-3-(1-ethyl-4-pyrazolyl)-1,4,6-triaza-7-naphthyl)-3-methyl-2,3-butanediol] | 100 to 1000 nM | 1000 to 30000 nM | – | – | –
12 | CC(=O)N1CCc2nc(N3CCN(Cc4c[nH]cn4)CC3)c(-c3cnn(C)c3)nc2C1 [Compound 548, 1-(2-{4-[(4-imidazolyl)methyl]-1-piperazinyl}-3-(1-methyl-4-pyrazolyl)-5,6,7,8-tetrahydro-1,4,6-triaza-6-naphthyl)-1-ethanone] | – | – | – | – | IC50 [1, 3]: ≥ 30000 nM; IC50 [2, 4]: ≥ 30000 nM
13 | COc1ncccc1-c1nc2c(nc1N1CCC(Oc3ccc(F)cc3F)CC1)CCN(C(C)=O)C2 [Compound 112, 1-{2-[4-(2,4-difluorophenoxy)piperidin-1-yl]-3-(2-methoxypyridin-3-yl)-5H,6H,7H,8H-pyrido[3,4-b]pyrazin-6-yl}ethan-1-one] | – | – | 1000 to 30000 nM | 1000 to 30000 nM | –
14 | CCn1cc(-c2nc3c(nc2N2CCC(Oc4ccc(F)cc4F)CC2)CCN(C(=O)OC(C)(C)C)C3)cn1 [Compound 260, tert-butyl 2-[4-(2,4-difluorophenoxy)piperidin-1-yl]-3-(1-ethyl-1H-pyrazol-4-yl)-5H,6H,7H,8H-pyrido[3,4-b]pyrazine-6-carboxylate] | – | – | 1000 to 30000 nM | 1000 to 30000 nM | –
15 | CC(=O)N1CCc2nc(N3CCC(Oc4ccc(F)cc4F)CC3)c(-c3cnn(C(C)(C)C#N)c3)nc2C1 [Compound 196, 2-(4-{6-acetyl-2-[4-(2,4-difluorophenoxy)piperidin-1-yl]-5H,6H,7H,8H-pyrido[3,4-b]pyrazin-3-yl}-1H-pyrazol-1-yl)-2-methylpropanenitrile] | – | – | 1000 to 30000 nM | 1000 to 30000 nM | –
16 | CC(=O)N1CCc2nc(N3CCC(C(=O)c4ccc(F)cc4F)CC3)c(-c3cnn(C)c3)nc2C1 [Compound 541, 1-{2-[4-(2,4-difluorobenzoyl)-1-piperidyl]-3-(1-methyl-4-pyrazolyl)-5,6,7,8-tetrahydro-1,4,6-triaza-6-naphthyl}-1-ethanone] | – | – | – | – | IC50 [1, 3]: 100 to 1000 nM; IC50 [2, 4]: 1000 to 30000 nM
17 | CC(=O)N1CCc2nc(N3CCC(Oc4ccc(F)cc4F)CC3)c(-c3cncc(O)c3)nc2C1 [Compound 158, 1-{2-[4-(2,4-difluorophenoxy)piperidin-1-yl]-3-(5-hydroxypyridin-3-yl)-5H,6H,7H,8H-pyrido[3,4-b]pyrazin-6-yl}ethan-1-one] | – | – | 1000 to 30000 nM | 1000 to 30000 nM | –
18 | CC(=O)N1CCc2nc(N3CCC(Oc4ccc(Br)cn4)CC3)c(-c3cnn(C)c3)nc2C1 [Compound 513, 1-{2-[4-(5-bromo-2-pyridyloxy)-1-piperidyl]-3-(1-methyl-4-pyrazolyl)-5,6,7,8-tetrahydro-1,4,6-triaza-6-naphthyl}-1-ethanone] | – | – | – | – | IC50 [1, 3]: 1000 to 30000 nM; IC50 [2, 4]: 1000 to 30000 nM
19 | CC(=O)N1CCc2nc(N3CCCC(Oc4ccc(F)cc4)C3)c(-c3cnn(C)c3)nc2C1 (stereo not drawn) [Compound 338, 1-{2-[3-(4-fluorophenoxy)piperidin-1-yl]-3-(1-methyl-1H-pyrazol-4-yl)-5H,6H,7H,8H-pyrido[3,4-b]pyrazin-6-yl}ethan-1-one] | ≥ 30000 nM | 1000 to 30000 nM | – | – | –
20 | CCn1cc(-c2nc3c(nc2N2CCC(Oc4ccc(F)cc4F)CC2)CCN(S(C)(=O)=O)C3)cn1 [Compound 269, 4-(2,4-difluorophenoxy)-1-[3-(1-ethyl-1H-pyrazol-4-yl)-6-methanesulfonyl-5H,6H,7H,8H-pyrido[3,4-b]pyrazin-2-yl]piperidine] | < 100 nM | 1000 to 30000 nM | – | – | –
21 | CC(C)(O)[C@@](C)(O)c1cc2nc(N3CCN(Cc4ccc(F)cc4F)CC3)c(-c3cnn(C4CC4)c3)nc2cn1 (single isomer, unassigned) [Compound 667] | 100 to 1000 nM | 1000 to 30000 nM | – | – | –
